Test results as given in ChEMBL document CHEMBL5226387, “A Drimane Meroterpenoid Borate as a Synchronous Ca+ Oscillation Inhibitor from the Coral-Associated Fungus Alternaria sp. ZH-15” (J Nat Prod, 2023).

How the values were obtained:
Type in all cases: functional, cell-based
[1] = Neuroprotective activity in C57BL/6J mouse primary neocortical neurons assessed as inhibition of 4-AP-induced spontaneous Ca2+ oscillation frequency treated with compound 15 mins prior to 4-AP challenge and measured after 10 mins by Fluo-4 dye based fluorescence analysis; conditions: Primary neocortical neuron
[2] = Neuroprotective activity in C57BL/6J mouse primary neocortical neurons assessed as inhibition of spontaneous Ca2+ oscillation amplitude measured for 15 mins by Fluo-4 dye based fluorescence analysis; conditions: Primary neocortical neuron, 0.25 h
[3] = Neuroprotective activity in C57BL/6J mouse primary neocortical neurons assessed as inhibition of 4-AP-induced spontaneous Ca2+ oscillation amplitude treated with compound 15 mins prior to 4-AP challenge and measured after 10 mins by Fluo-4 dye based fluorescence analysis; conditions: Primary neocortical neuron
[4] = Neuroprotective activity in C57BL/6J mouse primary neocortical neurons assessed as inhibition of spontaneous Ca2+ oscillation frequency measured for 15 mins by Fluo-4 dye based fluorescence analysis; conditions: Primary neocortical neuron, 0.25 h

COc1cc(-c2cc3c(c(=O)o2)C[C@@]24OB(O)O[C@]5(CC[C@@]2(C)O3)C(C)(C)C=CC(=O)[C@]45C)cc(OC)c1OC
IC50 [1]: 12 µM | IC50 [2]: 16 µM | IC50 [3]: 34 µM | IC50 [4]: 15 µM

COc1cc(-c2cc3c(c(=O)o2)C[C@]2(O)[C@@]4(C)C(=O)C=CC(C)(C)[C@]4(O)CC[C@@]2(C)O3)cc(OC)c1OC [TERRITREM B]
IC50 [1]: 14 µM | IC50 [2]: 5.4 µM | IC50 [3]: 27 µM | IC50 [4]: 8.6 µM
